We go through 35 molecules from ChEMBL document CHEMBL6182895, “Synthesis, in vitro and in vivo evaluation, and computational modeling analysis of thioxothiazolidine derivatives as highly potent and selective α-amylase inhibitors” (Eur J Med Chem, 2025).

SMILES strings stand for the structures.

Assay [1] is filed under the species Homo sapiens. In words: Inhibition of alpha-amylase (unknown origin) using starch as substrate preincubated for 10 mins followed by substrate addition and measured after 10 mins relative to control. Further details: concentration or dose not given beside the values. The note with it: time 20.0 min.
The species entered for assay [2] is Homo sapiens. In words: Inhibition of alpha-glucosidase (unknown origin) using p-NPG as substrate preincubated for 5 mins followed by substrate addition and measured after 30 mins relative to control. Conditions: time 35.0 min. Details: concentration or dose not given beside the values.
Assay [3] can be described thus: Inhibition of alpha-amylase (unknown origin) using starch as substrate preincubated for 10 mins followed by substrate addition and measured after 10 mins. Further details: species or system Homo sapiens.
The species named for assay [4] is Homo sapiens. In words: Potency index, ratio of acarbose IC50 to test compound IC50 for inhibition of alpha-amylase (unknown origin) using starch as substrate preincubated for 10 mins followed by substrate addition and measured after 10 mins. Conditions: time 20.0 min.
Assay [5] is described as follows: Inhibition of alpha-amylase (unknown origin). Further details: species or system Homo sapiens.
Assay [6] can be described thus: Inhibition of alpha-amylase (unknown origin) using starch as substrate measured after 30 mins. Further details: species or system Homo sapiens.
Assay [7] is described as follows: Inhibition of porcine pancreatic alpha-amylase using starch as substrate preincubated for 10 mins followed by substrate addition and measured after 30 mins. Further details: species or system Sus scrofa.
A short description of assay [8]: Inhibition of porcine pancreatic alpha-amylase using starch as substrate preincubated for 10 mins followed by substrate addition and measured after 5 mins. Further details: species or system Sus scrofa.

On to `O=C(CN1C(=O)/C(=C/c2nccs2)SC1=S)Nc1ccc(C(F)(F)F)cc1`, for which the inhibition – broadly, the share of the control response that was lost under treatment – in the assay filed under Homo sapiens [1] is 34.8%; in the assay listed under Homo sapiens [2], 7.83%.
In the case of `O=C(CN1C(=O)/C(=C/c2nccs2)SC1=S)Nc1c(F)cc(Br)cc1Cl`, the inhibition in the assay listed under Homo sapiens [1] worked out at 47.1%; in the assay filed under Homo sapiens [2], 5.14%. Moreover, 45.1 µM corresponded to half-maximal inhibition in assay [3] (IC50). For the same molecule, the Ratio IC50 in the assay listed under Homo sapiens [4] came to 21.
Turning to `O=C(CN1C(=O)/C(=C/c2nc3ccccc3s2)SC1=S)Nc1cccnn1`, the inhibition in the assay filed under Homo sapiens [1] was determined as 37.4%; in the assay filed under Homo sapiens [2], 7.42%.
Take `O=C(CN1C(=O)/C(=C/c2csc3ccccc23)SC1=S)Nc1c(F)cc(Br)cc1Cl`: the results for the inhibition in the assay listed under Homo sapiens [1] and in the assay listed under Homo sapiens [2] were 68.2% and 10.2%, respectively. The IC50 – broadly, the concentration needed to halve the response being measured – in assay [3] was found to be 154 µM.
On to `CC(C)CNC(=O)CN1C(=O)/C(=C/c2nccn2C)SC1=S`, for which the inhibition amounted to 23.3% in the assay filed under Homo sapiens [1] and 4.88% in the assay filed under Homo sapiens [2].
On to `O=C(CN1C(=O)/C(=C/c2csc3ccccc23)SC1=S)Nc1ccc(Br)cc1F`, for which the inhibition in the assay filed under Homo sapiens [1] was 14.7%; in the assay filed under Homo sapiens [2], 4.31%.
The matching figures for `O=C(CN1C(=O)/C(=C/c2nc3ccccc3s2)SC1=S)NC12CC3CC(CC(C3)C1)C2`: 29.6% and 6.63%.
In turn, `Fc1ccc(NC(=S)Nc2nnc(-c3ccc4cn[nH]c4c3)s2)cc1` displayed an IC50 in assay [5] of 9.9 µM.
Regarding `O=C(CN1C(=O)/C(=C/c2csc3ccccc23)SC1=S)Nc1c(F)cc(F)cc1Br`, the inhibition in the assay filed under Homo sapiens [1] came to 60.4%; in the assay listed under Homo sapiens [2], 6.49%. Moreover, the IC50 in assay [3] amounted to 190 µM.
`Oc1ccc(-c2nnc(CSc3nc4ccccc4[nH]3)o2)c(O)c1` yielded an IC50 in assay [5] of 6.2 µM.
On to `CC(C)CNC(=O)CN1C(=O)/C(=C/c2nccs2)SC1=S`, for which the results for the inhibition in the assay listed under Homo sapiens [1] and in the assay filed under Homo sapiens [2] were 30.4% and 6.43%, respectively.
The matching figures for `Cn1ccnc1/C=C1\SC(=S)N(CC(=O)Nc2cccnn2)C1=O`: 27.4% and 9.47%.
Turning to `COc1ccc(C2C(C#N)=C(NC(C)=O)Oc3oc4ccccc4c(=O)c32)cc1` (stereo not drawn), in assay [6], the IC50 turned out to be 0.00204 µM.
Regarding `CC(C)CNC(=O)CN1C(=O)/C(=C/c2csc3ccccc23)SC1=S`, the inhibition worked out at 29.6% in the assay listed under Homo sapiens [1] and 8.62% in the assay filed under Homo sapiens [2].
The matching figures for `O=C(CN1C(=O)/C(=C/c2nccs2)SC1=S)Nc1c(F)cc(F)cc1Br`: 42.8% and 4.85%.
As for `O=C(CN1C(=O)/C(=C/c2csc3ccccc23)SC1=S)Nc1cccnn1`, the inhibition turned out to be 37.8% in the assay filed under Homo sapiens [1] and 7.87% in the assay filed under Homo sapiens [2].
As to `O=C(CN1C(=O)/C(=C/c2csc3ccccc23)SC1=S)NC12CC3CC(CC(C3)C1)C2`, the results for the inhibition in the assay listed under Homo sapiens [1] and in the assay listed under Homo sapiens [2] were 32.5% and 6.53%, respectively.
For the molecule `O=C(CN1C(=O)/C(=C/c2nc3ccccc3s2)SC1=S)Nc1ccc(C(F)(F)F)cc1`, the inhibition in the assay listed under Homo sapiens [1] worked out at 61.7%; in the assay filed under Homo sapiens [2] it was 3.78%. Also, in assay [3], the IC50 came out at 4.07 µM. The Ratio IC50 in the assay listed under Homo sapiens [4] stood at 234.
In the case of `CC(=O)N1C(=O)C(Cc2cn(-c3ccc([N+](=O)[O-])cc3[N+](=O)[O-])nc2-c2ccc(O)cc2)SC1=S` (stereo not drawn), inhibition in assay [7] was half-maximal at 638 µM (IC50).
On to `O=C(CN1C(=O)/C(=C/c2nc3ccccc3s2)SC1=S)Nc1c(F)cc(Br)cc1Cl`, for which the figures for the inhibition in the assay listed under Homo sapiens [1] and in the assay listed under Homo sapiens [2] were 69.8% and 8.37%, respectively. The IC50 in assay [3] amounted to 167 µM.
Molecule `O=C(Cc1c[nH]c2ccccc12)NNS(=O)(=O)c1ccccc1F` registered an IC50 in assay [5] of 1.8 µM.
As to `O=C(CN1C(=O)/C(=C/c2nc3ccccc3s2)SC1=S)Nc1ccc(Br)cc1F`, the figures for the inhibition in the assay filed under Homo sapiens [1] and in the assay listed under Homo sapiens [2] were 69.2% and 7.65%, respectively. The molecule also returned an IC50 in assay [3] of 128 µM.
Turning to `Cn1ccnc1/C=C1\SC(=S)N(CC(=O)NC23CC4CC(CC(C4)C2)C3)C1=O`, the inhibition in the assay filed under Homo sapiens [1] is 15.2%; in the assay filed under Homo sapiens [2] it was 8.22%.
The matching figures for `O=C(CN1C(=O)/C(=C/c2nccs2)SC1=S)Nc1ccc(Br)cc1F`: 22.6% and 9.25%.
The matching figures for `O=C(CN1C(=O)/C(=C/c2nc3ccccc3s2)SC1=S)Nc1c(F)cc(F)cc1Br`: 40.1% and 6.16%.
Take `Cn1ccnc1/C=C1\SC(=S)N(CC(=O)Nc2ccc(Br)cc2F)C1=O`: the inhibition came out at 10.2% in the assay listed under Homo sapiens [1] and 8.36% in the assay listed under Homo sapiens [2].
As to `COc1ccc(C(=O)NC(=O)NC2CC2)cc1`, in assay [5], 1.57 µM corresponded to half-maximal inhibition (IC50).
As for `O=C(CN1C(=O)/C(=C/c2nccs2)SC1=S)Nc1cccnn1`, the inhibition in the assay listed under Homo sapiens [1] and in the assay listed under Homo sapiens [2] was 10.1% in each case.
Take `CC(C)CNC(=O)CN1C(=O)/C(=C/c2nc3ccccc3s2)SC1=S`: the inhibition stood at 43.2% in the assay listed under Homo sapiens [1] and 6.23% in the assay listed under Homo sapiens [2].
Consider `O=C(CN1C(=O)/C(=C/c2csc3ccccc23)SC1=S)Nc1ccc(C(F)(F)F)cc1`, for which the results for the inhibition in the assay listed under Homo sapiens [1] and in the assay listed under Homo sapiens [2] were 73.5% and 4.59%, respectively. Besides, in assay [3], the IC50 worked out at 14 µM. Also, the Ratio IC50 in the assay filed under Homo sapiens [4] was determined as 68.
Molecule `O=C1OCc2cc(-c3ccc(C(F)(F)F)cc3)ccc21` yielded an IC50 in assay [5] of 85.4 µM.
With `O=C(CN1C(=O)/C(=C/c2nccs2)SC1=S)NC12CC3CC(CC(C3)C1)C2`, the inhibition in the assay filed under Homo sapiens [1] was found to be 42.1%; in the assay listed under Homo sapiens [2], 5.67%.
On to `Cn1ccnc1/C=C1\SC(=S)N(CC(=O)Nc2c(F)cc(F)cc2Br)C1=O`, for which the inhibition in the assay filed under Homo sapiens [1] was 59.2%; in the assay filed under Homo sapiens [2], 6.24%. The molecule further returned an IC50 in assay [3] of 129 µM.
Molecule `COC(=O)[C@@H]1N[C@@]2(C(=O)Nc3ccc(Br)cc32)[C@@]2(SC(=S)NC2=O)[C@H]1c1ccccc1` yielded an IC50 in assay [8] of 1.49 µM.
Turning to `Cn1ccnc1/C=C1\SC(=S)N(CC(=O)Nc2c(F)cc(Br)cc2Cl)C1=O`, the inhibition amounted to 38.2% in the assay filed under Homo sapiens [1] and 8.25% in the assay listed under Homo sapiens [2].
